The values below come from patent US20250042882A1, “CERTAIN 3-AZABICYCLO[3.1.0]HEXANES AS GLP-1 RECEPTOR MODULATORS” (AstraZeneca AB, priority 2021, published 2025).

pEC50, pIC50: −log10 of the molar value.

By pIC50 is commonly meant −log10 of the IC50, conventionally taken in molar units. The term pEC50 denotes the negative decadic logarithm of the EC50, by convention in mol/L.

For assay [1], the target named is T1, human phosphodiesterase-3A (Homo sapiens, UniProt Q14432).
T1 construct: host or cells: Sf9 (Spodoptera frugiperda)
Kind of assay: PDE3 Assay. It is filed as biochemical. The following applies: human recombinant enzyme expressed in Sf9 cells; formation of 5′AMP from cAMP, SPA. The method, then: Evaluation of the effects of compounds on the activity of the human phosphodiesterase-3A is quantified by measuring the formation of 5′AMP from cAMP using a human recombinant enzyme expressed in a clonal isolate of Spodoptera frugiperda cells (Sf9) cells.
The test compound, reference compound or water (control) are added to a buffer containing 40 mM tris(hydroxymethyl)aminomethane (Tris)/HCl (pH 7.4) and 8 mM MgCl2, 450 nMcAMP and 0.25 μCi [^3H]cAMP.
Thereafter, the reaction is initiated by addition of the enzyme (about 1 U) and the mixture is incubated for 20 min at 22° C.
For basal control measurements, the enzyme is omitted from the reaction mixture.
Following incubation SPA beads are added. After 30 min at 22° C. under shaking, the amount of [^3H]5′AMP is quantified with a scintillation counter (Topcount, Packard).
The results are expressed as a percent inhibition of the control enzyme activity. The standard inhibitory reference compound is milrinone (CAS number 78415-72-2), which is tested in each experiment at several concentrations to obtain an inhibition curve from which its IC50 value is calculated.

For the next assay, the target named is T2, human GLP-1R receptor (Homo sapiens, UniProt P43220, L260F).
T2 construct: expressed in transfected cells; host or cells: CHO-K1 (ATCC CCL-61)
Kind of assay: CHOK1 GLP-1R cAMP Assay. The following applies: CHO-K1 cell line stably expressing human GLP-1R (Leu260Phe variant); HTRF cAMP; agonist activity. In kind it is cell-based. The protocol: A cell line stably expressing the human GLP-1R receptor (NM_002062.5, including the naturally-occurring variant Leu260Phe) in a CHO-K1 (ATCC® CCL-61™) was used for assay.
GLP-1 receptor mediated agonist activity was determined in a cell-based assay measuring cyclic adenosine monophosphate (cAMP) levels in cells using Homogeneous Time-Resolved Fluorescence (HTRF) cAMP detection kit (CisBio catalog #62AM4PEC, cAMP Gs Dynamic range kit). The cAMP detection method is based on a competitive immunoassay, in which cAMP produced by the cells and cAMP labeled with the dye d2 compete for binding to a Europium-Cryptate-labeled anti-cAMP antibody. The specific HTRF signal is inversely proportional to the concentration of cAMP.
Compounds were added to individual well in 384 well-assay plates (Greiner #784076) using an Echo (LabCyte) dispenser from 10 mM stocks. Varying concentration of compounds were added to wells, and DMSO was used to normalize each well to a volume of 100 nL. A dose response curve of GLP-1(7-36)NH2 (Bachem H-6795) was included in each run. 5 μL of cAMP concentration response standards are applied in specified wells in the assay plates. Cryo-preserved cells are thawed and resuspended in assay buffer pre-heated to 37° C. (20 mM HEPES pH 7.4, 1× Hank's Balanced Salt Solution (HBSS, Life Technologies #14065) supplemented with 0.1% (w/v) bovine serum albumin (Sigma, A-7030). Cells were centrifuged at 250*g for 5 min at rt, and resuspended in room tempered assay buffer to a final density of 0.16*10^6 cell/mL, to deliver 800 cells/well. 5 μL of assay buffer with 1 mM 3-isobutyl-1-methylxanthin (IBMX; Sigma cat I-7018) was dispensed per well in assay plates using a multidrop combi (Thermo Scientific) subsequently 5 μL of cell suspension was distributed to relevant wells in the assay using a multidrop dispenser. Assay plates were incubated 20 min at rt.
Detection reagents, Europium-Cryptate-labeled anti-cAMP antibody and cAMP labeled with the dye d2, are diluted in lysis buffer, provided by the manufacturer. 5 μL of each detection reagent is supplemented to each assay well using a multidrop dispenser. Assay plates are incubated in the dark for at least one h. The HTRF signal is measured using the HTRF module (excitation: 337 nm, emission A: 665 nm and emission B: 620 nm) in Pherastar FSX (BMG Labtech).
Raw data were converted to pM cAMP using the cAMP standard curve included in each run.
Converted data were further analyzed in Genedata Screener (Genedata) and EC50 determinations were made from agonist dose-response curves analyzed with a curve fitting program using a 4-parameter logistic dose response equation (Equation y=A+((B−A)/1+((C/x)^D))) where A is no stimulation, B is full stimulation, C is the EC50 and D is the Hill slope). The percent effect was determined relative to a saturating concentration of a full GLP-1R agonist (GLP-1(7-36)NH2 has 100% effect in this assay setup).

The target in a further assay is T3, GLP-1R (Homo sapiens, UniProt P43220).
T3 construct: host or cells: EndoC-βH1 human pancreatic beta cell line
Kind of assay: EndoC cAMP Accumulation Assay. In kind it is cell-based. The following applies: EndoC-βH1 human pancreatic β cell line; HTRF cAMP accumulation. The text has this: EndoC cAMP Accumulation Assay
A HTRF cAMP assay (cAMP Gs dynamic kit; CisoBio Cat #62AM4PEJ) was used to identify agonists of GLP-1R in a pancreatic insulinoma cell line (EndoC-⊕H1). […] EndoC-PHlcells have detectable GLP-1R messenger ribonucleic acid (mRNA) as detected by quantitative polymerase chain reaction (qPCR). […] The EndoC-PH1 cell line is a valid model of human beta cells and applicable for screenings to identify novel drug target candidates (Mol. Metab., 2018, 8, 144-157). CisBio HTRF cAMP kits are based on a competitive immunoassay using cryptate-labelled anti-cAMP antibody and d2-labeled cAMP. The detection kit is intended for the direct quantitative determination of cAMP. The specific signal (i.e. energy transfer) is inversely proportional to the concentration of cAMP in the standard or sample. Test compounds (10 mM in DMSO) were diluted into assay buffer (HBSS (Sigma #H8264) supplemented with 25 mM HEPES (Gibco #15630, pH 7.4), 0.1% BSA (Sigma #A3059) and 0.5 mM IBMX (Sigma #I7018) included fresh on the day of the assay) into 96 well U-bottom plates (Greiner #650201). Diluted compounds were transferred to ECHO source polypropylene plates (Labcyte #P-05525) and dose response curves were dispensed acoustically using ECHO 550 into black shallow-well u-bottom 384-well HTRF Assay Plates (Corning 4514).
Cryovials of EndoC-H1 (supplied at 1×10e^7 cells/vial) were used directly for screening. The cryovials and were removed from N2(l) and thawed rapidly in a 37° C. water bath. The cells were resuspended in assay buffer and centrifuged at 300 g for 5 min. Cells were resuspended in assay buffer at the appropriate concentration, typically at 12e5 cells per mL (3000 cells per well, dependent on cell batch) and 2.5 μL diluted cells were added to all wells of destination plate by Multidrop combi reagent dispenser (Thermofisher). The plates were incubated at rt for 30 min. The assay was stopped by adding 2.5 μL anti-cAMP cryptate solution to all wells and 2.5 μL cAMP-d2 solution (both diluted 1:20 in lysis buffer) to columns 1-22 by Combi drop. A volume of 2.5 μL cAMP-d2 solution was added to wells E23 to P24 and 2.5 μL lysis buffer added to wells A23 to D24 by multichannel pipette. The plates were incubated at rt for 1 h and read on an Envision plate reader using excitation wavelength of 320 mn and emission of 590 nm and 660 nm.
Raw data from Envision is converted to % DeltaF according to the manufacturer's instructions. Dose response curves are analysed via 4-Parameter Logistical Analysis and assay plate Z′ values obtained. Samples are graphed as percentage (%) activation plots compared to GIP (1-42, Bachem H-5645) with assay window defined by negative control as basal cell cAMP levels and positive control are defined by maximum GIP (82.5 nM) signal. GLP-1 (7-36 amide, Bachem H-6795) dose response curve was included on all plates.
In general terms: Time-resolved FRET reads energy transfer from a long-lived donor to a nearby acceptor.

T2 sequence (P43220 24-463 L260F): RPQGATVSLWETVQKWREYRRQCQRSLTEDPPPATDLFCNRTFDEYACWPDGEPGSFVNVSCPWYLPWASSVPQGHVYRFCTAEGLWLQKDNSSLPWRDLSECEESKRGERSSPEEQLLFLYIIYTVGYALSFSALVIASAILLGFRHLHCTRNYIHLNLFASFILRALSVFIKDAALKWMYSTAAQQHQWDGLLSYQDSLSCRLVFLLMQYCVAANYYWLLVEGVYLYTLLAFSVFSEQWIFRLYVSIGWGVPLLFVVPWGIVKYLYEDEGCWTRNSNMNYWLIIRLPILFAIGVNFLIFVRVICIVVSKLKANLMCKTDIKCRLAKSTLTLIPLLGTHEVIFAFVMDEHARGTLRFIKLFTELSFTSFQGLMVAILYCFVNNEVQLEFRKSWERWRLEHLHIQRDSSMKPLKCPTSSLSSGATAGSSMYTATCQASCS
T1 sequence (Q14432 whole entry): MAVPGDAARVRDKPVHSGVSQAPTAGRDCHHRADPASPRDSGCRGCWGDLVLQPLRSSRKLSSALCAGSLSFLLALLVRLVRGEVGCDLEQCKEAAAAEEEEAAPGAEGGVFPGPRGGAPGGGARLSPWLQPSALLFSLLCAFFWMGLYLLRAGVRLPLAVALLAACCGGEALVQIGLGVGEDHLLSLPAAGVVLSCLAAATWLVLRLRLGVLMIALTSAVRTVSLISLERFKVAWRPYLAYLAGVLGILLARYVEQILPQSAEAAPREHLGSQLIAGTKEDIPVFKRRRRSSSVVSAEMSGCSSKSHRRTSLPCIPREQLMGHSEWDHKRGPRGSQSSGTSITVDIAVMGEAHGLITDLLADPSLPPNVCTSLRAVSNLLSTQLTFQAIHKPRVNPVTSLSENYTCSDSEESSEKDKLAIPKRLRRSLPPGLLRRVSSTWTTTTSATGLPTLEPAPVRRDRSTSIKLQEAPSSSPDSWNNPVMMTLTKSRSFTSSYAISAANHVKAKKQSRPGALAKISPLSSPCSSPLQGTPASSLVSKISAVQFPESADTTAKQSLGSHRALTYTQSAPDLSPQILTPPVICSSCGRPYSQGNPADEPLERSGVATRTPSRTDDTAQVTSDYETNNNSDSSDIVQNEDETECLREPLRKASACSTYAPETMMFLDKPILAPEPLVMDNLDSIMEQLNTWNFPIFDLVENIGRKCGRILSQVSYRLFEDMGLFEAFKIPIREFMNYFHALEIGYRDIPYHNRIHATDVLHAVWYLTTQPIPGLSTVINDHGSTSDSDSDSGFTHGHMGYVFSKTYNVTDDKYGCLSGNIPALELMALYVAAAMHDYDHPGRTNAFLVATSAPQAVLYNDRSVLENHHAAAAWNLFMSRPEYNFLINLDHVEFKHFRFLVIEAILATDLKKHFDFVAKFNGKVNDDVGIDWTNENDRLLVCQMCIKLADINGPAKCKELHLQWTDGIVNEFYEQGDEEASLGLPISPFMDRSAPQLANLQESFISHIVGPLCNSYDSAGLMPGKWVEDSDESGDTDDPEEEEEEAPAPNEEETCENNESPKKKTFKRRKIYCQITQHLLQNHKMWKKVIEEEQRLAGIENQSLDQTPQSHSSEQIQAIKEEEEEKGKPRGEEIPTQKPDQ
T3 sequence (P43220 24-463): as the sequence (P43220 24-463 L260F) above, with F237L counted along it

In the case of `COc1cc(C(=O)O)cc2c1nc(CN1C[C@@H]3[C@H](C1)[C@H]3c1cccc3c1O[C@](C)(c1ccc(Cl)cc1F)O3)n2CC1CCO1` (relative stereo) [Example 2, 2-(((1R,5S,6R)-6-((R*)-2-(4-Chloro-2-fluorophenyl)-2-methylbenzo[d][1,3]dioxol-4-yl)-3-azabicyclo[3.1.0]hexan-3-yl)methyl)-4-methoxy-1-(((S)-oxetan-2-yl)methyl)-1H-benzo[d]imidazole-6-carboxylic acid], the negative logarithm of the IC50 (pIC50) in assay [1] was below 5.00. The pEC50 on human GLP-1R receptor was 7.85; on GLP-1R it was 7.82.
Turning to “4-Chloro-2-(((1R,5S,6R)-6-((R*)-2-(5-chloropyridin-2-yl)-5-fluoro-2-methylbenzo[d][1,3]dioxol-4-yl)-3-azabicyclo[3.1.0]hexan-3-yl)methyl)-1-(((S)-oxetan-2-yl)methyl)-1H-benzo[d]imidazole-6-carboxylic acid [Example 8a]”, the pEC50 on human GLP-1R receptor was 6.82; at GLP-1R, 6.55.
Take `CC1(c2ccc(Cl)cn2)Oc2cccc([C@H]3[C@@H]4CN(Cc5nc6ccc(C(=O)O)cc6n5CC5CCO5)C[C@@H]43)c2O1` (stereo partly drawn) [Example 3, 2-(((1R,5S,6R)-6-(2-(5-Chloropyridin-2-yl)-2-methylbenzo[d][1,3]dioxol-4-yl)-3-azabicyclo[3.1.0]hexan-3-yl)methyl)-1-(((S)-oxetan-2-yl)methyl)-1H-benzo[d]imidazole-6-carboxylic acid]: the pEC50 at human GLP-1R receptor is 6.59; on GLP-1R, 6.77.
The matching figures for “4-Chloro-2-(((1R,5S,6R)-6-((R*)-2-(5-chloropyridin-2-yl)-5-fluoro-2-methylbenzo[d][1,3]dioxol-4-yl)-3-azabicyclo[3.1.0]hexan-3-yl)methyl)-1-(((S)-oxetan-2-yl)methyl)-1H-benzo[d]imidazole-6-carboxylic acid [Example 8b]”: 8.09 and 8.02.
The corresponding values for `CCn1cncc1Cn1c(CN2C[C@@H]3[C@H](C2)[C@H]3c2cccc3c2O[C@](C)(c2ccc(Cl)cn2)O3)nc2c(Cl)cc(C(=O)O)cc21` (single isomer, unassigned) [Example 12, 4-Chloro-2-(((1R,5S,6s)-6-((R*)-2-(5-chloropyridin-2-yl)-2-methylbenzo[d][1,3]dioxol-4-yl)-3-azabicyclo[3.1.0]hexan-3-yl)methyl)-1-((1-ethyl-1H-imidazol-5-yl)methyl)-1H-benzo[d]imidazole-6-carboxylic acid] are 7.52 and 8.12.
As to `C[C@@]1(c2ccc(Cl)cn2)Oc2cccc([C@H]3[C@@H]4CN(Cc5nc6c(F)cc(C(=O)O)cc6n5C[C@@H]5CCO5)C[C@@H]43)c2O1` (relative stereo) [Example 9, 2-(((1R,5S,6R)-6-((R*)-2-(5-Chloropyridin-2-yl)-2-methylbenzo[d][1,3]dioxol-4-yl)-3-azabicyclo[3.1.0]hexan-3-yl)methyl)-4-fluoro-1-(((S)-oxetan-2-yl)methyl)-1H-benzo[d]imidazole-6-carboxylic acid], the results for the pEC50 at human GLP-1R receptor and at GLP-1R were 7.40 and 7.24, respectively.
The matching figures for “2-(((1R,5S,6R)-6-((R*)-2-(5-Chloropyridin-2-yl)-5-fluoro-2-methylbenzo[d][1,3]dioxol-4-yl)-3-azabicyclo[3.1.0]hexan-3-yl)methyl)-4-fluoro-1-(((S)-oxetan-2-yl)methyl)-1H-benzo[d]imidazole-6-carboxylic acid [Example 10b]”: 6.17 and 5.72.
Take `N#Cc1ccc(COc2cccc(C3CCN(Cc4nc5ccc(C(=O)O)cc5n4C[C@@H]4CCO4)CC3)n2)c(F)c1` [Ref Comp B, reference compound]: the pIC50 in assay [1] is 4.96.
On to “2-(((1R,5S6R)-6-((R*)-2-(5-Chloropyridin-2-yl)-5-fluoro-2-methylbenzo[d][1,3]dioxol-4-yl)-3-azabicyclo[3.1.0]hexan-3-yl)methyl)-4-fluoro-1-(((S)-oxetan-2-yl)methyl)-1H-benzo[d]imidazole-6-carboxylic acid [Example 10a]”, for which the negative-log IC50 (pIC50) in assay [1] was below 4.00. Besides, the pEC50 on human GLP-1R receptor is 7.72; on GLP-1R, 7.89.
